Measurements from the supplement of paper PMC10307832.

Key:
Experiment in all cases: relative viability (nuclei count vs DMSO), 5 days (fraction); higher = more cells survive
COR-L 105 = system: COR-L 105
How it was run: (§1)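 Each reported value is a median over duplicate plates. It expresses relative viability: treated-well nuclei count divided by vehicle-well nuclei count. Lung cancer cell lines in 1536-well plates were dosed by pin tool a day after seeding, alone with one drug or with a fixed anchor-drug dose plus five library-drug doses (not always all listed) in √10 steps, and nuclei were counted after 5 days.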

LK-2 = system: LK-2
How it was run: as §1

LOU-NH91 = system: LOU-NH91
How it was run: as §1

CAL-12T = system: CAL-12T
How it was run: as §1

NCI-H1666 = system: NCI-H1666
How it was run: as §1

HCC-366 = system: HCC-366
How it was run: as §1

BEN = system: BEN
How it was run: as §1

NCI-H1650 = system: NCI-H1650
How it was run: as §1

NCI-H727 = system: NCI-H727
How it was run: as §1

NCI-H460 = system: NCI-H460
How it was run: as §1

NCI-H441 = system: NCI-H441
How it was run: as §1

PC-14 = system: PC-14
How it was run: as §1

201T = system: 201T
How it was run: as §1

NCI-H2170 = system: NCI-H2170
How it was run: as §1

NCI-H3122 = system: NCI-H3122
How it was run: as §1

NCI-H2009 = system: NCI-H2009
How it was run: as §1

EKVX = system: EKVX
How it was run: as §1

SW 900 = system: SW 900
How it was run: as §1

HARA = system: HARA
How it was run: as §1

NCI-H661 = system: NCI-H661
How it was run: as §1

NCI-H1437 = system: NCI-H1437
How it was run: as §1

## CCN(CC)CCCCNc1ncc2cc(-c3cc(OC)cc(OC)c3)c(NC(=O)NC(C)(C)C)nc2n1 + CC(=O)Nc1cccc(-n2c(=O)n(C3CC3)c(=O)c3c(Nc4ccc(I)cc4F)n(C)c(=O)c(C)c32)c1 [Trametinib] (partner 0.02 µM)
COR-L 105; first compound 0.01 µM
  relative viability: 0.417
COR-L 105; first compound 0.03162 µM
  relative viability: 0.406
COR-L 105; first compound 0.1 µM
  relative viability: 0.483
COR-L 105; first compound 0.3162 µM
  relative viability: 0.45
COR-L 105; first compound 1 µM
  relative viability: 0.451
LK-2; first compound 0.01 µM
  relative viability: 0.856
LK-2; first compound 0.03162 µM
  relative viability: 0.649
LK-2; first compound 0.1 µM
  relative viability: 0.756
LK-2; first compound 0.3162 µM
  relative viability: 0.597
LK-2; first compound 1 µM
  relative viability: 0.299
LOU-NH91; first compound 0.01 µM
  relative viability: 0.758
LOU-NH91; first compound 0.03162 µM
  relative viability: 0.771
LOU-NH91; first compound 0.1 µM
  relative viability: 0.829
LOU-NH91; first compound 0.3162 µM
  relative viability: 0.844
LOU-NH91; first compound 1 µM
  relative viability: 0.766
CAL-12T; first compound 0.01 µM
  relative viability: 0.3
CAL-12T; first compound 0.03162 µM
  relative viability: 0.338
CAL-12T; first compound 0.1 µM
  relative viability: 0.372
CAL-12T; first compound 0.3162 µM
  relative viability: 0.261
CAL-12T; first compound 1 µM
  relative viability: 0.333
NCI-H1666; first compound 0.01 µM
  relative viability: 0.788
NCI-H1666; first compound 0.03162 µM
  relative viability: 0.834
NCI-H1666; first compound 0.1 µM
  relative viability: 0.93
NCI-H1666; first compound 0.3162 µM
  relative viability: 0.973
NCI-H1666; first compound 1 µM
  relative viability: 0.875
HCC-366; first compound 0.01 µM
  relative viability: 0.352
HCC-366; first compound 0.03162 µM
  relative viability: 0.386
HCC-366; first compound 0.1 µM
  relative viability: 0.437
HCC-366; first compound 0.3162 µM
  relative viability: 0.358
HCC-366; first compound 1 µM
  relative viability: 0.309
BEN; first compound 0.01 µM
  relative viability: 1.15
BEN; first compound 0.03162 µM
  relative viability: 0.797
BEN; first compound 0.1 µM
  relative viability: 0.978
BEN; first compound 0.3162 µM
  relative viability: 1.09
BEN; first compound 1 µM
  relative viability: 0.888
NCI-H1650; first compound 0.01 µM
  relative viability: 0.695
NCI-H1650; first compound 0.03162 µM
  relative viability: 0.564
NCI-H1650; first compound 0.1 µM
  relative viability: 0.783
NCI-H1650; first compound 0.3162 µM
  relative viability: 0.598
NCI-H1650; first compound 1 µM
  relative viability: 0.457
NCI-H727; first compound 0.01 µM
  relative viability: 0.387
NCI-H727; first compound 0.03162 µM
  relative viability: 0.412
NCI-H727; first compound 0.1 µM
  relative viability: 0.369
NCI-H727; first compound 0.3162 µM
  relative viability: 0.362
NCI-H727; first compound 1 µM
  relative viability: 0.362
NCI-H460; first compound 0.01 µM
  relative viability: 0.127
NCI-H460; first compound 0.03162 µM
  relative viability: 0.208
NCI-H460; first compound 0.1 µM
  relative viability: 0.153
NCI-H460; first compound 0.3162 µM
  relative viability: 0.124
NCI-H460; first compound 1 µM
  relative viability: 0.062
NCI-H441; first compound 0.01 µM
  relative viability: 0.545
NCI-H441; first compound 0.03162 µM
  relative viability: 0.506
NCI-H441; first compound 0.1 µM
  relative viability: 0.489
NCI-H441; first compound 0.3162 µM
  relative viability: 0.529
NCI-H441; first compound 1 µM
  relative viability: 0.408
PC-14; first compound 0.01 µM
  relative viability: 0.956
PC-14; first compound 0.03162 µM
  relative viability: 0.836
PC-14; first compound 0.1 µM
  relative viability: 1.16
PC-14; first compound 0.3162 µM
  relative viability: 0.759
PC-14; first compound 1 µM
  relative viability: 0.591
201T; first compound 0.01 µM
  relative viability: 0.716
201T; first compound 0.03162 µM
  relative viability: 0.725
201T; first compound 0.1 µM
  relative viability: 0.742
201T; first compound 0.3162 µM
  relative viability: 0.742
201T; first compound 1 µM
  relative viability: 0.605
NCI-H2170; first compound 0.01 µM
  relative viability: 0.987
NCI-H2170; first compound 0.03162 µM
  relative viability: 0.929
NCI-H2170; first compound 0.1 µM
  relative viability: 0.894
NCI-H2170; first compound 0.3162 µM
  relative viability: 1
NCI-H2170; first compound 1 µM
  relative viability: 0.719
NCI-H3122; first compound 0.01 µM
  relative viability: 0.246
NCI-H3122; first compound 0.03162 µM
  relative viability: 0.229
NCI-H3122; first compound 0.1 µM
  relative viability: 0.226
NCI-H3122; first compound 0.3162 µM
  relative viability: 0.239
NCI-H3122; first compound 1 µM
  relative viability: 0.247
NCI-H2009; first compound 0.01 µM
  relative viability: 0.264
NCI-H2009; first compound 0.03162 µM
  relative viability: 0.244
NCI-H2009; first compound 0.1 µM
  relative viability: 0.266
NCI-H2009; first compound 0.3162 µM
  relative viability: 0.254
NCI-H2009; first compound 1 µM
  relative viability: 0.192
EKVX; first compound 0.03162 µM
  relative viability: 0.4
EKVX; first compound 0.1 µM
  relative viability: 0.365
EKVX; first compound 0.3162 µM
  relative viability: 0.328
EKVX; first compound 1 µM
  relative viability: 0.311
SW 900; first compound 0.01 µM
  relative viability: 0.787
SW 900; first compound 0.03162 µM
  relative viability: 0.916
SW 900; first compound 0.1 µM
  relative viability: 0.947
SW 900; first compound 0.3162 µM
  relative viability: 0.665
SW 900; first compound 1 µM
  relative viability: 0.522
HARA; first compound 0.01 µM
  relative viability: 0.589
HARA; first compound 0.03162 µM
  relative viability: 0.632
HARA; first compound 0.1 µM
  relative viability: 0.645
HARA; first compound 0.3162 µM
  relative viability: 0.579
HARA; first compound 1 µM
  relative viability: 0.466
NCI-H661; first compound 0.01 µM
  relative viability: 0.592
NCI-H661; first compound 0.03162 µM
  relative viability: 0.589
NCI-H661; first compound 0.1 µM
  relative viability: 0.569
NCI-H661; first compound 0.3162 µM
  relative viability: 0.563
NCI-H661; first compound 1 µM
  relative viability: 0.473
NCI-H1437; first compound 0.01 µM
  relative viability: 0.564
NCI-H1437; first compound 0.03162 µM
  relative viability: 0.529
NCI-H1437; first compound 0.1 µM
  relative viability: 0.622
NCI-H1437; first compound 0.3162 µM
  relative viability: 0.521
NCI-H1437; first compound 1 µM
  relative viability: 0.495
